Laboratory results taken from patent US8076449B2, “Therapeutic agents of colivelin for neurodegenerative diseases” (Tomohiro Chiba, priority 2004, dated 2011).

Tests used:
Format in all cases: in vivo, mouse
[1] = tested on: ChAT(+) neurons in the ventral gray column of ALS model mice; assay: Immunohistochemical count of ChAT(+) neurons in spinal cord sections from dead ALS model mice; settings: spinal cord (L1-3) sections from dead mice
Description: Spinal cord (L1-3) sections from wild-type (n=3, FIG. 9a), control (saline-treated) (n=5, FIG. 9b), ADNF-treated (n=3, FIG. 9c), AGA-C8R-HNG17-treated (n=14, FIG. 9d), or colivelin-treated (n=12, FIG. 9e) mice were immunostained with an anti-ChAT antibody to count ChAT(+) neurons in the ventral gray columns of the spinal cords. The sections were prepared from dead mice. The average number of ChAT(+) neurons per section was compared among the mice (FIG. 9f). Statistical analysis was conducted by one-way ANOVA, followed by Fischer's PLSD test (**p<0.01); and
(§1) The immunohistochemical analysis of neuroprotective effect was conducted using ALS model mice (n=12, FIG. 9e) administered with colivelin, in comparison to wild type (n=3, FIG. 9a), control (saline-treated) (n=5, FIG. 9b), A DNF-treated (n=3, FIG. 9c), and AGA-C8R-HNG17-treated (n=14, FIG. 9d) mice. Spinal cord (L1-3) sections from dead mice in each group were immunostained with an anti-ChAT antibody to count ChAT(+) neurons in the ventral gray column (FIG. 9f).

[2] = tested on: ChAT(+) neurons in the ventral gray column of ALS model mice; assay: Immunohistochemical count of ChAT(+) neurons in spinal cord sections from 120-day-old ALS model mice; settings: spinal cord (L1-3) sections from 120-day-old mice
Description: Spinal cord (L1-3) sections from wild-type (n=3, FIG. 10A), control (saline-treated) (n=5, FIG. 10B), ADNF-treated (n=3, FIG. 10C), or colivelin-treated (n=12, FIG. 10D) mice were immunostained with an anti-ChAT antibody to count ChAT(+) neurons in the ventral gray column. The sections were prepared from 120-day-old mice (see FIG. 8d). The average number of ChAT(+) neurons per section was compared among the mice (FIG. 10E). Statistical analysis was conducted by one-way ANOVA, followed by Fischer's PLSD test (**p<0.01; *p<0.05).
as §1, with “10D)” for “9e)”, “10A),” for “9a),”, “10B), and ADNF-treated” for “9b), A DNF-treated”, “10C)” for “9c), and AGA-C8R-HNG17-treated (n=14, FIG. 9d)”, “the” for “dead”, “9f). The sections were prepared from 120-day-old mice with motor function increased by colivelin and ADNF (see FIG. 8d)” for “9f).”

[3] = tested on: CD-1 mice icv-administered with Aβ (25-35); assay: Y-maze spatial working memory impairment induced by Aβ (25-35), icv administration; settings: 1 nmol colivelin icv, 10 nmol Aβ (25-35) icv, 3 weeks after Aβ
Description: The icv administration of Aβ peptides has been reported to induce spatial working memory impairment. […] In this test, the in vivo neuroprotective effect of colivelin on Aβ toxicity was examined.
Male CD-1 mice at 3 months of age were icy-administered once every three weeks with 1 nmol colivelin together with 3 μl of saline or 3 μl of saline alone into the left lateral ventricles. After 1 hour from the first administration of colivelin, 5 μl of saline together with 10 nmol Aβ (25-35) or 5 μl of saline alone was administered to the right lateral ventricles. After 3 weeks from the Aβ peptide administration, each mouse was examined for spatial working memory in a Y-maze. The Y-maze was made of three gray plastic arms (40 cm long, 12 cm high, 3 cm wide at the bottom, and 10 cm wide at the top) connected to each other at angles of 120°. The mice were individually placed at the end of one arm of the Y-maze and allowed to freely explore the arms for 8 minutes. Items examined were (1) frequency of entry into each arm, (2) total arm entry times, (3) spontaneous alternation percentage, and (4) events. The spontaneous alternation percentage was defined as a ratio of the arm choices that differed from the previous two choices (“successful choices”) to total choices during the run (“total entry minus two”, because the first two choices could not be evaluated for success or failure during the run). […]

SALLRSIPAPAGASRLLLLTGEIDLP [colivelin]
number of ChAT(+) neurons per section in the spinal cord [1]: approximately 19 | number of ChAT(+) neurons per section in the spinal cord [2]: approximately 32 | spontaneous alternation percentage (SA %) in Y-maze [3]: 70%
